Data as given in patent US20200063214A1, “METHODS OF IDENTIFYING PATIENTS LIKELY TO BENEFIT FROM TREATMENT WITH A TELOMERASE INHIBITOR” (Geron Corporation, priority 2018, published 2020).
Where “and” joins values, the source holds several entries; their conditions need not be identical. Equal entries are not always repeated. Entries after “also recorded” stand apart in the source; their conditions may differ.

What was measured:
[1] = test system: intermediate-2 (int-2) or high-risk myelofibrosis (MF); settings: 33-patient pilot study, Tefferi 2015; cited from earlier work
[2] = test system: various cancer cell lines and tumor xenografts in mice; settings: cited from earlier work
[3] = test system: intermediate-2 or high-risk myelofibrosis (MF) relapsed/refractory to JAK inhibitor; assay: Phase 2 study: spleen response (spleen volume reduction, SVR, by MRI at week 24); format: in vivo, human
Excerpt: (§1) Diagnosis of primary, post-essential thrombocythemia, or post-polycythemia vera MF was required; other eligibility criteria included measurable splenomegaly (by magnetic resonance imaging [MRI]), active MF-related systemic symptoms and platelet count ≥75×10^9/L. Primary endpoints were: spleen response rate (% achieving ≥35% spleen volume reduction [SVR] by MRI at week 24); and symptom response rate (% achieving ≥50% reduction in total symptom score [TSS] per the Myelofibrosis Symptom Assessment Form (MFSAF) v2 at week 24). Key secondary endpoints included safety, overall survival (OS), treatment response, molecular response, and pharmacokinetic and pharmacodynamic relationships.

hTERT RNA expression = assay: Pharmacodynamics: hTERT RNA level reduction from baseline, whole blood; format: in vivo, human; settings: both arms
Experimental: (§2) Telomerase activity and hTERT was analyzed to evaluate pharmacodynamic effects for imetelstat.

[4] = test system: patients with essential thrombocythemia; settings: phase 2, essential thrombocythemia; cited from earlier work
human telomerase = settings: Asai 2003; Herbert 2005; cited from earlier work
[5] = test system: intermediate-2 or high-risk myelofibrosis (MF) relapsed/refractory to JAK inhibitor; assay: Phase 2 study: symptom response (total symptom score, TSS, MFSAF v2 at week 24); format: in vivo, human; settings: 9.4 mg/kg
Excerpt: as §1

telomerase activity = assay: Pharmacodynamics: telomerase activity (TA) reduction from baseline in study subjects; format: in vivo, human; settings: for subjects with Telomerase Activity >30% reduction from baseline / subjects with Telomerase Activity >50% reduction from baseline: both arms
Excerpt: In other embodiments of the invention, telomerase activity and level of hTERT expression in biological samples obtained from patients can be determined to evaluate pharmacodynamic effects and/or monitor patients being treated with a telomerase inhibition. The telomerase activity can be measured using the TRAP (Telomeric Repeat Amplification Protocol) telomerase activity assay. The level of hTERT expression can be determined by measuring the level of hTERT RNA expression in the cells in the biological sample using northern blots or serial analysis of gene expression (SAGE) or other methods.
as §2

[6] = test system: intermediate-2 or high-risk myelofibrosis (MF) relapsed/refractory to JAK inhibitor; assay: Phase 2 study: overall survival (OS); format: in vivo, human
Excerpt: as §1

[7] = Phase 2 study: adverse events on treatment; format: in vivo, human
Excerpt: as §1

[8] = 9.4 mg/kg, all with baseline TL data, N = 53
[9] = all with baseline TL data, N = 53
[10] = Spleen Response at wk 24 by IRC: No
[11] = Spleen Response at wk 24 by IRC: Yes
[12] = 9.4 mg/kg arm, Non-TN (MUT), second clinical cutoff
[13] = 9.4 mg/kg arm, Triple Negative (TN), second clinical cutoff
[14] = 4.7 MG/KG, all subjects with baseline TL (N 40)
[15] = 4.7 MG/KG, all subjects with baseline TL (N 40), first clinical cutoff
[16] = 4.7 MG/KG, baseline TL <=Median Value
[17] = 4.7 MG/KG, baseline TL >Median Value
[18] = 9.4 MG/KG, all subjects with baseline TL (N 53)
[19] = 9.4 MG/KG, baseline TL <=Median Value
[20] = 9.4 MG/KG, baseline TL >Median Value

Q: Which “clinical activity and safety profile” value [1] does the source give for “imetelstat: 13-mer oligonucleotide that targets the RNA template of human telomerase; first-in-class telomerase inhibitor (TAGGGTTAGACAA; 5' palmitoyl amidopropyl, thio-phosphoramidate, sodium salt, further chemistry not given here)” here?
A: Its value is “Clinical activity and an acceptable safety profile”.

Q: And the “telomerase activity and cell proliferation” value [2]?
A: Its value is “inhibits telomerase activity and cell proliferation”.

Q: What about the “responses (SVR or TSS) in patients with HMR having greater than one mutation” value ([3]; 9.4 mg/kg) of the same substance?
A: The value was “responses were observed”.

Q: And the “rate of response (SVR or TSS), LMR or HMR with only 1 mutation compared to HMR with more than 1 mutations” value ([3]; 9.4 mg/kg arm, week 24)?
A: The value was “enriched”.

Q: What about the “rate of response (SVR or TSS), TN group compared to Non-TN group” value ([3]; 9.4 mg/kg arm, week 24) of the same substance?
A: Its value is “enriched”.

Q: What about the “rate of response (SVR or TSS), shorter baseline TL compared to longer TL” value ([3]; 9.4 mg/kg arm, week 24) of the same substance?
A: The value was “enriched; also recorded: higher rate of response”.

Q: And the “subjects with SVR >= 35% at week 24 by IRC, No” value ([3]; 9.4 mg/kg, Longer TL (>Median value), 24 subjects)?
A: Its value is 23 (92.7%).

Q: What about the “subjects with SVR >= 35% at week 24 by IRC, No” value ([3]; 9.4 mg/kg, Shorter TL (<= Median value), 29 subjects) of the same substance?
A: Its value is 24 (82.75%).

Q: What about the “subjects with SVR >= 35% at Week 24 by IRC, Yes” value [3, 8] of the same substance?
A: Its value is “(10.5%)”.

Q: And the “subjects with SVR >= 35% at week 24 by IRC, No” value [3, 8]?
A: Its value is “(89.5%)”.

Q: And the “subjects with hTERT>50% reduction from baseline” value (hTERT RNA expression; TSS Response at wk 24: No)?
A: The value was 45/81 (55.6%).

Q: What about the “subjects with hTERT>50% reduction from baseline” value (hTERT RNA expression; TSS Response at wk 24: Yes) of the same substance?
A: The value was 15/24 (62.5%).

Q: And the “JAK2 V617F and CALR mutant allele burdens” value [4]?
A: Its value is “significant reduction”.

Q: And the platelet-lowering activity [4]?
A: The platelet-lowering activity was “platelet-lowering activity”.

Q: And the “inhibition of telomerase enzymatic activity” value (human telomerase)?
A: The value was “potent competitive inhibitor”.

Q: And the “subjects with TSS >= 50% decrease at week 24, No” value ([5]; Longer TL (>Median value), 24 subjects)?
A: The value was 18 (75%).

Q: And the “subjects with TSS >= 50% decrease at week 24, No” value ([5]; Shorter TL (<= Median value), 29 subjects)?
A: The value was 19 (65.6%).

Q: What about the “subjects with TSS >= 50% decrease at week 24, No” value [5, 9] of the same substance?
A: The value was “(69.8%)”.

Q: And the “subjects with TSS >= 50% decrease at week 24, Yes” value [5, 9]?
A: Its value is “(30.2%)”.

Q: And the “PD effect (telomerase activity and hTERT RNA reduction), 9.4 vs […]” value (telomerase activity; 9.4 mg/kg arm vs […] arm)?
A: The value was “dose-dependent PD effect”.

Q: What about the “subjects achieving TA >=30% decrease from baseline at any timepoint” value (telomerase activity; 4.7 MG/KG, 34 subjects with baseline) of the same substance?
A: The value was 14 (41.2%).

Q: What about the “subjects achieving TA >=30% decrease from baseline at any timepoint” value (telomerase activity; 9.4 MG/KG, 45 subjects with baseline) of the same substance?
A: The value was 28 (62.2%).

Q: What about the “subjects with Telomerase Activity >30% reduction from baseline” value (telomerase activity; [10]) of the same substance?
A: The value was 41/70 (58.6%).

Q: And the “subjects with Telomerase Activity >50% reduction from baseline” value (telomerase activity; [10])?
A: The value was 34/70 (48.6%).

Q: What about the “subjects with Telomerase Activity >30% reduction from baseline” value (telomerase activity; [11]) of the same substance?
A: The value was 3/4 (75%).

Q: And the “subjects with Telomerase Activity >50% reduction from baseline” value (telomerase activity; [11])?
A: Its value is 2/4 (50%).

Q: What about the “subjects with Telomerase Activity >30% reduction from baseline” value (telomerase activity; TSS Response at wk 24: No) of the same substance?
A: Its value is 29/56 (51.8%).

Q: What about the “subjects with Telomerase Activity >50% reduction from baseline” value (telomerase activity; TSS Response at wk 24: No) of the same substance?
A: Its value is 24/56 (42.9%).

Q: What about the “subjects with Telomerase Activity >30% reduction from baseline” value (telomerase activity; TSS Response at wk 24: Yes) of the same substance?
A: The value was 15/18 (83.3%).

Q: What about the “subjects with Telomerase Activity >50% reduction from baseline” value (telomerase activity; TSS Response at wk 24: Yes) of the same substance?
A: Its value is 12/18 (66.7%).

Q: What about the “OS trend, shorter baseline TL (<= median TL)” value ([6]; 9.4 mg/kg arm) of the same substance?
A: Its value is “better OS trend”.

Q: And the “Median survival, months (95% CI)” value [6, 12]?
A: The value was 24.6 (19.7, NE) months.

Q: What about the “Percentage of Subjects Who Died” value [6, 12] of the same substance?
A: Its value is 21/41 (51.2%).

Q: And the “Median survival, months (95% CI)” value ([6]; 9.4 mg/kg arm, Non-TN subjects, first clinical cutoff)?
A: The value was 23.6 months.

Q: And the “OS HR (Hazard Ratio) (95% CI)” value ([6]; 9.4 mg/kg arm, Non-TN vs TN, second clinical cutoff)?
A: The value was 2.60 (0.89, 7.59).

Q: And the “Median survival, months (95% CI)” value ([6]; 9.4 mg/kg arm, TN subjects, first clinical cutoff)?
A: Its value is “not estimable”.

Q: And the “Median survival, months (95% CI)” value [6, 13]?
A: Its value is “NE (23.2, NE)”.

Q: And the “Percentage of Subjects Who Died” value [6, 13]?
A: Its value is 4/16 (25.0%).

Q: What about the “18-months survival rate % (95% CI)” value [6, 14] of the same substance?
A: The value was 68.2 %.

Q: What about the “24-months survival rate % (95% CI)” value [6, 14] of the same substance?
A: Its value is 39.6 %.

Q: What about the “Number of events (OS)” value [6, 15] of the same substance?
A: Its value is 20.

Q: What about the “Overall Survival (months) Median (95% CI)” value (from here on “Overall Survival … (95% CI)”) [6, 15] of the same substance?
A: The value was 22.3 (18.2, NE) months.

Q: And the “18-months survival rate % (95% CI)” value [6, 16]?
A: Its value is 76.7 %.

Q: What about the “24-months survival rate % (95% CI)” value [6, 16] of the same substance?
A: Its value is 34.1 %.

Q: What about the “Number of events (%) (OS)” value ([6]; 4.7 MG/KG, baseline TL <=Median Value, first clinical cutoff) of the same substance?
A: The value was 10(25.0%).

Q: And the “18-months survival rate % (95% CI)” value [6, 17]?
A: Its value is 61.0 %.

Q: And the “24-months survival rate % (95% CI)” value [6, 17]?
A: Its value is 46.6 %.

Q: And the “Number of events (%) (OS)” value ([6]; 4.7 MG/KG, baseline TL >Median Value, first clinical cutoff)?
A: The value was 10(25.0%).

Q: What about the “Overall Survival … (95% CI)” value ([6]; 4.7 MG/KG, longer baseline TL (>Median Value), first clinical cutoff) of the same substance?
A: The value was 22.3 (16.6, NE) months and 22.3 months.

Q: What about the “Overall Survival … (95% CI)” value ([6]; 4.7 MG/KG, shorter baseline TL (<=Median Value), first clinical cutoff) of the same substance?
A: The value was 20.3 (17.2, NE) months and 20.3 months.

Q: What about the “18-months survival rate % (95% CI)” value [6, 18] of the same substance?
A: Its value is 75.9 %.

Q: What about the “24-months survival rate % (95% CI)” value [6, 18] of the same substance?
A: The value was 54.2 %.

Q: And the “Number of events (OS)” value ([6]; 9.4 MG/KG, all subjects with baseline TL (N 53), first clinical cutoff)?
A: Its value is 18.

Q: What about the “18-months survival rate % (95% CI)” value [6, 19] of the same substance?
A: The value was 81.2 %.

Q: And the “24-months survival rate % (95% CI)” value [6, 19]?
A: The value was 59.3 %.

Q: And the “Number of events (%) (OS)” value ([6]; 9.4 MG/KG, baseline TL <=Median Value, first clinical cutoff)?
A: Its value is 8(15.1%).

Q: What about the “18-months survival rate % (95% CI)” value [6, 20] of the same substance?
A: Its value is 69.8 %.

Q: And the “24-months survival rate % (95% CI)” value [6, 20]?
A: The value was 47.6 %.

Q: And the “Number of events (%) (OS)” value ([6]; 9.4 MG/KG, baseline TL >Median Value, first clinical cutoff)?
A: The value was 10(18.9%).

Q: What about the “Overall Survival … (95% CI)” value ([6]; 9.4 MG/KG, longer baseline TL (>Median Value), first clinical cutoff) of the same substance?
A: Its value is 22.8 months.

Q: And the “Overall Survival … (95% CI)” value ([6]; 9.4 MG/KG, shorter baseline TL (<=Median Value), first clinical cutoff)?
A: The value was “not estimable”.

Q: What about the “Imetelstat-related hepatic toxicities, confirmed by independent Hepatic Review Committee” value [7] of the same substance?
A: Its value is “not observed”.
